Measurements from patent US9499484B2, “Indole, indoline derivatives, compositions comprising them and uses thereof” (priority 2012, dated 2016).
Counter-ions that a name gives are not always drawn. Like-named read-outs stand apart in the source and are kept apart here.

How the values were obtained:
[1] = Radical scavenging, glucose oxidase/luminol luminescence; type: biochemical; conditions: concentration reducing luminescence/radical by 50%; mean ± SD, three independent experiments
Experimental: A. Measurement of Radical Scavenging
A mixture comprising glucose oxidase (GO), luminol, sodium selenite [IV] ([…]) and cobalt [II] (Co^+2) all in Hank's Balance Salt Solution (HBSS) was used (Ginsburg et al, 2004). The production of H2O2 produces a burst of luminescence within 30-60 sec, which lasts for 7-10 min. The luminescence involves oxidation of SEL+5 to it SEL+6 and also the generation of oxidants, which are catalyzed by Co^+2. This method mimics infection and inflammation conditions in which there is an accumulation of several oxidant species. This method provides a source of several radicals. Reduction in luminescence by the compounds is due to their ability to sequester radicals and was measured after addition of several concentrations of each compound. The concentration of each compound that reduced the luminescence by 50% was calculated.

BuChE = biological target: T1, BuChE (UniProt P81908); type: biochemical, human or equine serum
T1 construct: 120 min incubation; BuChE IC50
Experimental: (§1) B. Measurement of Acetylcholinesterase (AChE) and Butylcholinesterase (BuChE) Inhibition In Vitro
(§2) The enzyme was incubated at 37° C. with 6-10 concentrations of the compounds tested and samples were collected at 15, 30, 60 and 120 min Aliquots were transferred to an Elisa multiscan microplate reader (Labsystems) at 15-60 sec time intervals for the determination of residual AChE activity, with Ascent PC software. […] The % inhibition of AChE by each concentration was calculated by comparison with the activity of the enzyme in the absence of drug. […] BuChE-inhibitory activity was determined as described above using BuChE (Sigma Israel) with butylthiocholine iodide (BuTh) 0.075M as a substrate.

AChE = biological target: T2, AChE (UniProt P23795); type: biochemical, human or bovine erythrocytes
T2 sequence (P23795 1-613): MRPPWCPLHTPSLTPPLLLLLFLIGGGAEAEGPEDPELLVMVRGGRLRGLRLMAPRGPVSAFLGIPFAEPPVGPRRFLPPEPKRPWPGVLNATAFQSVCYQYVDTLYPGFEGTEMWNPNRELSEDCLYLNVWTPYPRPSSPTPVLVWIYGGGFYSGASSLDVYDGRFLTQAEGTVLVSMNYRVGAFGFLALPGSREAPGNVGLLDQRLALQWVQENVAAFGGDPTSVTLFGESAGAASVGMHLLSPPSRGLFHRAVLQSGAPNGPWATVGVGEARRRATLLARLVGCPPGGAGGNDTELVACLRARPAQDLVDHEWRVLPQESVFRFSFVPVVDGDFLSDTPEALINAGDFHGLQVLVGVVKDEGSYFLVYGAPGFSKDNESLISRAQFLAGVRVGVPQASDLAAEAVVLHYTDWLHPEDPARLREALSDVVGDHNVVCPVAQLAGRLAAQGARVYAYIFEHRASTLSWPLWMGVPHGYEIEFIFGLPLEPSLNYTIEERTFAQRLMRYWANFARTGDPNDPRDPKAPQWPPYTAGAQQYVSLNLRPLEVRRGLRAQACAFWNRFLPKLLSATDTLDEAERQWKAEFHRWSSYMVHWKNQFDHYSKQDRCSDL
Experimental: as §1, §2

NO, RAW 264.7 cells = experiment: NO reduction in LPS-stimulated RAW 264.7 macrophages; type: cell-based, mouse
[2] = tested on: ChE (AChE, BuChE) in plasma, muscle, spleen, brain; conditions: after ip and or oral administration in mice
Experimental: E. Acetylcholinesterase (AChE) and Butylcholinesterase (BuChE) Inhibition Ex Vivo
Compounds of the invention or saline were administrated by intraperitoneal (ip) injection or gavage to groups of 6-7 male ICR or Balb C mice (5-6 weeks of age). The mice were sacrificed 15, 30, 60 or 120 min after drug administration and the brain (minus cerebellum), spleen, and muscle were rapidly removed, weighed and put on ice. Blood was also collected in heparinised tubes, centrifuged at 14000 rpm at room temperature for 4 mM to provide plasma. Phosphate buffer pH 7 was added to each tissue to produce concentrations of 1 mg/mL for brain and spleen and 8 mg/mL for muscle. The tissues were homogenised in cold phosphate buffer pH 7 containing 0.1% Triton and centrifuged at 14000 rpm. Aliquots of plasma and the supernatant of all tissues were incubated with AcTh or BuTh and DTNB in phosphate buffer pH 7 and the rate of development of the yellow colour was measured as described above. Enzyme activity was measured for each time and drug concentration and percent inhibition of the AChE or BuChE activity was calculated by comparison with that of control mice injected with saline. Results are represented as p moles acetylthiocholine or butythiocholine hydrolysed/min/gm tissue.

[3] = tested on: TNF-α, BV2 mouse microglial cells; experiment: TNF-α reduction in LPS-stimulated BV2 microglia; type: cell-based
Experimental: The BV2 mouse microglial cells were created by infecting primary mouse microglia with v-raf/v-myc oncogen-carrying retrovirus and donated by Dr. Sigal Fleisher—Berkovich (Ben-Gurion University of the Negev). The cells were cultured in RPMI 1640 containing 0.4 mM L-Glutamine, 10% FCS, 100 units/ml penicillin, 100 μg/ml streptomycin and maintained in a humidified incubator at 37° C. with 5% CO2. For measurement of the effect of compounds on the release of NO the cells were seeded in a density of 80,000 cells/ml and confluence of about 60%, and incubated with test compounds (in the absence of FCS) for […] All the medium was removed and fresh medium containing FCS and LPS (10 μg/ml) added and the cells maintained at 37° C. for 24 h. The release of NO into the medium was determined by measurement of nitrite levels using Griess reagent reaction. For measurement of protein levels of cytokines cells were seeded in a density of 80,000 and incubated with test compounds (in the absence of FCS) and then with LPS as described above. The medium was centrifuged and supernatants collected after 6 h for TNF-α (Biolegend) and after 20 h for IL-6 (Biolegend).

[4] = read-out: IC50 BuChE 120 min, Table 3, 120 min incubation
[5] = Mus musculus, RAW264.7, 24 h, read-out: Reduction in NO levels, RAW Macrophages % peak reduction
[6] = concentration range; None = no reduction up till 100 nM
[7] = Table 2, 120 min incubation, read-out: IC50 AChE 120′
[8] = Table 3, 120 min incubation, read-out: IC50 AChE 120 min

Compound: [2H]c1cc2c(cc1O)N(C)CC2CCC(=O)O (stereo not shown) [AN-849, Methyl 3-(5-deuteriu-6-hydroxy-1-methylindolin-3-yl) propanoic acid hydrochloride]
- IC50 [1]: 0.84 ± 0.05 µM

Compound: CCN(C)C(=O)Oc1cccc2c1C(CCC(=O)O)CN2C (stereo not shown) [AN-699, 3-(4-((Ethyl(methyl)carbamoyl)oxy)-1-methylindolin-3-yl)propanoic acid hydrochloride]
- IC50 (BuChE; [4]): 9.7 µM
- IC50 [1]: 1.64 ± 0.06 µM

Compound: CCN(C)C(=O)Oc1ccc2c(CCCN)c[nH]c2c1.Cl [AN-911, 3-(6-((Ethyl(methyl)carbamoyl)oxy)-1H-indol-3-yl)propan-1-aminium chloride]
- IC50 (BuChE; [4]): 0.1 µM
- IC50 (AChE; read-out: IC50 AChE 120 min): 24 µM
- Emax (NO, RAW 264.7 cells; [5]): 66.6 ± 1.9%
- Reduction in NO levels by at >20%, RAW Macrophages range (NO, RAW 264.7 cells; [6]): 10^−2-100 nM

Compound: CCN(C)C(=O)Oc1ccc2c(CCC(=O)OCOC(=O)C(C)(C)C)c[nH]c2c1 [AN-860, (3-(6-(Ethyl(methyl)carbamoyloxy)-1H-indol-3-yl)propanotloxy)methyl pivalate]
- ChE inhibition in plasma, muscle, and spleen [2]: inhibited ChE

Compound: CCCCN(C)C(=O)Oc1ccc2c(CCC(=O)OC)c[nH]c2c1 [compound 676, 3-(2-(Methoxycarbonyl)ethyl)-1H-indol-6-yl butylmethylcarbamate]
- IC50 (AChE; [7]): 33 µM

Compound: CN(C)C(=O)Oc1cccc2ccn(C)c12 [AN-621, Dimethyl-carbamic acid 1-methyl-1H-indol-7-yl ester]
- IC50 (AChE): 0.33 µM
- IC50 (AChE; [7]): 0.3 µM

Compound: CN(C)C(=O)Oc1cccc2c1CCN2C [AN-619, Dimethyl-carbamic acid 1-methyl-2,3-dihydro-1H-indol-4-yl ester]
- IC50 (AChE; [7]): 3.5 µM

Compound: COc1ccc(N(C)C(=O)Oc2cccc3c2CCN3)cc1 [AN-857, Indolin-4-yl 4-methoxyphenyl(methyl)carbamate hydrochloride]
- IC50 (BuChE; [4]): 3.6 µM

Compound: CCN(C)C(=O)Oc1cccc2c1NCC2CCC(=O)OC (stereo not shown) [AN-852, Methyl 3-(7-(ethyl(methyl)carbamoyloxy)indolin-3-yl)propanoate hydrochloride]
- IC50 (BuChE; read-out: BuChE IC50, most potent BuChE inhibitors): 0.08 µM

Compound: CN(C)C(=O)Oc1cccc2c1CCN2 [AN-856, Indolin-4-yl dimethylcarbamate hydrochloride]
- IC50 (BuChE; [4]): 1.3 µM
- IC50 [1]: 0.77 ± 0.03 µM

Compound: COC(=O)CCc1c[nH]c2cc(OC(=O)N(C)c3ccc(OC)cc3)ccc12 [compound 683, Methyl 3-(6-((4-methoxyphenyl)(methyl)carbamoyloxy)-1H-indol-3-yl)propanoate]
- IC50 (AChE; [7]): > 800 µM

Compound: CCN(C)C(=O)Oc1cccc2c1C(CCC(N)=O)CN2 (stereo not shown) [AN-851, 3-(3-Amino-3-oxopropyl)indolin-4-yl ethyl(methyl)carbamate hydrochloride]
- IC50 (BuChE; [4]): 8.5 µM
- IC50 [1]: 2.39 ± 0.4 µM

Compound: CCN(C)C(=O)Oc1cccc2[nH]cc(CCCN)c12 [AN-910, 3-(4-((Ethyl(methyl)carbamoyl)oxy)-1H-indol-3-yl)propan-1-aminium chloride]
- IC50 (BuChE; [4]): 0.23 µM
- Emax (NO, RAW 264.7 cells; [5]): 29.3 ± 1.2%

Compound: CCOC(=O)CCC1CNc2cccc(OC(=O)N(C)CC)c21.O=C(O)CC(O)(CC(=O)O)C(=O)O (stereo not shown) [AN-871, Ethyl 3-(4-(ethyl(methyl)carbamoyloxy)indolinium citrate]
- IC50 (BuChE; [4]): 0.56 µM
- IC50 (AChE; [8]): 40.2 µM

Compound: CCCCN(C)C(=O)Oc1cccc2c1C(CCC(=O)OC)CN2C (stereo not shown) [AN-667, 3-(2-(Methoxycarbonyl)ethyl)-1-methylindolin-4-yl butylmethylcarbamate hydrochloride]
- IC50 (BuChE; [4]): 197 µM
- IC50 [1]: 6.84 ± 0.05 µM

Compound: CCN(CC)C(=O)Oc1ccc2c(c1)CCN2C [AN-625, Diethyl-carbamic acid 1-methyl-2,3-dihydro-1H indol-5-yl ester]
- IC50 (AChE; read-out: IC50 AChE 120′): 50 µM

Compound: CCN(CC)C(=O)Oc1ccc2c(ccn2C)c1 [AN-622, Diethyl-carbamic acid 1-methyl-1H indol-5-yl ester]
- IC50 (AChE; read-out: IC50 AChE 120′): > 500 µM

Compound: CCN(C)C(=O)Oc1ccc2c(c1)C(CCC(=O)OC)CN2 (stereo not shown) [AN-669, 3-(2-(Methoxycarbonyl)ethyl) indolin-5-yl ethylmethylcarbamate]
- IC50 (AChE; [7]): 660 µM

Compound: Oc1cccc2c1CCN2 [AN-855, Indolin-4-ol hydrochloride]
- Reduction in TNF-α levels, BV2 Microglia % peak reduction [3]: 38.2 ± 3.2%
- Reduction in TNF-α levels, BV2 Microglia range ([3]; concentration range, None = no reduction up till 100 nM): 10^−1-100 nM

Compound: COC(=O)CCC1CN(C)c2cccc(OC(=O)N(C)c3ccc(OC)cc3)c21 (stereo not shown) [AN-820, 3-(2-(Methoxycarbonyl)ethyl)-1-methylindolin-4-yl 4-methoxyphenylmethyl carbamate hydrochloride]
- IC50 (BuChE; [4]): > 600 µM
- IC50 (AChE; [8]): 246 µM
- IC50 [1]: 15.3 ± 0.01 µM

Compound: COc1ccc(N(C)C(=O)Oc2cccc3c2C(CCC(=O)O)CN3)cc1 (stereo not shown) [AN-821, hydrochloride]
- IC50 (BuChE; [4]): 417 µM
- IC50 [1]: 4.33 ± 0.06 µM

Compound: CCN(C)C(=O)Oc1cccc2[nH]cc(CCN(C)C)c12 [AN-1252, 3-(2-(Dimethylamino)ethyl)-1H-indol-4-yl ethyl(methyl)carbamate hydrochloride]
- IC50 (BuChE; read-out: IC50 BuChE 120 min): 0.11 µM
- Emax (NO, RAW 264.7 cells; Mus musculus, RAW264.7, 24 h; read-out: Reduction in NO levels, RAW Macrophages % peak reduction): 36.4 ± 1.8%

Compound: CCN(C)C(=O)Oc1ccc2c(c1)NCC2 [AN-885, Indolin-6-yl ethyl(methyl)carbamate hydrochloride]
- IC50 (BuChE; [4]): 58.7 µM
- IC50 [1]: 1.15 ± 0.01 µM

Compound: CCN(C)C(=O)Oc1cccc2c1C(CCC(=O)OC)CN2C (stereo not shown) [AN-698, 3-(2-(Methoxycarbonyl)ethyl)-1-methylindolin-4-yl ethylmethylcarbamate hydrochloride]
- IC50 (BuChE; [4]): 6.8 µM
- IC50 [1]: 3.13 ± 0.36 µM

Compound: COc1ccc(N(C)C(=O)Oc2cccc3c2C(CCC(=O)O)CN3C)cc1 (stereo not shown) [AN-822, hydrochloride]
- IC50 (BuChE; [4]): > 600 µM
- IC50 [1]: 10.2 ± 4.1 µM

Compound: CCN(C)C(=O)Oc1cccc2c1c(CCC(=O)OC)cn2C [AN-629, Methyl 3-(4-((ethyl(methyl)carbamoyl)oxy)-1-methyl-1H-indol-3-yl) propanoate]
- IC50 (AChE; [7]): 180 µM

Compound: Ethyl 3-(5- ((ethyl(methyl)carbamoyl) oxy)-1H- benzo[d]imidazol-1- yl)propanoate hydrochloride Ethyl 3-(6- ((ethyl(methyl)carbamoyl) oxy)-1H- benzo[d]imidazol-1- yl)propanoate hydrochloride [AN-1257]
- IC50 (BuChE; Table 3, 120 min incubation, read-out: IC50 BuChE 120 min): 0.11 µM
- Reduction in NO levels, RAW Macrophages % peak reduction (NO, RAW 264.7 cells): 34.5 ± 1.2%
- Reduction in NO levels by at >20%, RAW Macrophages range (NO, RAW 264.7 cells; [6]): 10^−2-1000 nM

Compound: Cn1cc(CCC(=O)O)c2ccc(O)cc21
- melting point: 157 to 161 °C

Compound: CCN(C)C(=O)Oc1cccc2c1c(/C=C/C(=O)OC)cn2C
- melting point: 97 to 100 °C

Compound: CCCCN(C)C(=O)Oc1cccc2[nH]ccc12
- melting point: 86 to 89 °C

Compound: CCN(C)C(=O)Oc1ccc2c(/C=C/C(=O)OC)cn(C)c2c1
- melting point: 105 to 110 °C

Compound: COc1ccc(N(C)C(=O)Oc2ccc3c(C=O)cn(C)c3c2)cc1
- melting point: 110 to 115 °C
